Experimental data: patent publication US11007269B2, “P53 degradation inducing molecule and pharmaceutical composition” (Tokyo University of Science Foundation, priority 2016, dated 2021)

What was measured:
[1] = biological target: endogenous wild-type p53 protein (Homo sapiens, UniProt P04637); assay: Western blot of endogenous wild-type p53 protein degradation (knockdown) in HCT116 cells; format: cell-based; set-up: degradation (knockdown) of an endogenous wild-type p53 protein and MDM2 protein in HCT116 cells; endogenous in cells; host or cells: HCT116; conditions: 48 hours after addition, vs DMSO control
Procedure: (§1) In Example 2, degradation (knockdown) of an endogenous wild-type p53 protein and MDM2 protein in HCT116 cells (human large intestinal cancer cells) to which TIBC-CANDDY_MLN had been added was evaluated by Western blot analysis.
(§2) HCT116 cells were seeded in a 24-well plate at a cell density of 8×10^4 cells/well, and then cultured under conditions of 37° C. and 5 vol % CO2 for 16 hours.
(§3) After 16 hours from cell seeding, TIBC-CANDDY_MLN or TIBC was added to HCT116 cells as follows. As a medium, a serum-free medium (37° C.) in which 1 mass % L-glutamine solution (Sigma-Aldrich) was added to D-MEM (high D-glucose, phenol red, sodium pyruvate (Wako Pure Chemical Industries, Ltd.)) was used. It is noted that the L-glutamine solution was added immediately before use. […]
(§4) After electrophoresis, proteins were transferred to a PVDF membrane (Immobion™-P, Millipore) under conditions of 100 V and 2 hours using a tank-type blotting device and a transfer buffer (25 mM Tris-HCl, 195 mM glycine, 0.01% SDS, 15% methanol). […] Subsequently, the membrane was treated with a chemiluminescence reagent Immobilon™ Western (Millipore), and then chemiluminescence was detected using a lumino image analyzer LAS-3000 (FUJIFILM Corporation).

MDM2 protein = biological target: T1, MDM2 protein (Homo sapiens, UniProt Q00987); assay: Western blot of endogenous MDM2 protein degradation (knockdown) in HCT116 cells; format: cell-based; conditions: 48 hours after addition, vs DMSO control
T1 construct: endogenous in cells; host or cells: HCT116
Procedure: as §1, §2, §3, §4

T1 sequence (Q00987 whole entry): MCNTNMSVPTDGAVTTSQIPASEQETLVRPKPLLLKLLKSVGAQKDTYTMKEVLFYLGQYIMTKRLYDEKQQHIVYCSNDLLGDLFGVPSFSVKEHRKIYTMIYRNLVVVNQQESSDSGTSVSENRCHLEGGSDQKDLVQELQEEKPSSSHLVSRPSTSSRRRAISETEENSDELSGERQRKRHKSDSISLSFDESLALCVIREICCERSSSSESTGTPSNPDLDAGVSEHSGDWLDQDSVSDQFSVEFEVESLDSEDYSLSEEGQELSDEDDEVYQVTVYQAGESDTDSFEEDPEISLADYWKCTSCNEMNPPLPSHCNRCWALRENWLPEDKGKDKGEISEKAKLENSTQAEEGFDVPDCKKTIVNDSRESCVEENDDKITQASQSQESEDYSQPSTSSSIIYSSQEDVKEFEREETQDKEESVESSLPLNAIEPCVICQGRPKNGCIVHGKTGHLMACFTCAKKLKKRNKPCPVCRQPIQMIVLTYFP
Chain of endogenous wild-type p53 protein (P04637 whole entry): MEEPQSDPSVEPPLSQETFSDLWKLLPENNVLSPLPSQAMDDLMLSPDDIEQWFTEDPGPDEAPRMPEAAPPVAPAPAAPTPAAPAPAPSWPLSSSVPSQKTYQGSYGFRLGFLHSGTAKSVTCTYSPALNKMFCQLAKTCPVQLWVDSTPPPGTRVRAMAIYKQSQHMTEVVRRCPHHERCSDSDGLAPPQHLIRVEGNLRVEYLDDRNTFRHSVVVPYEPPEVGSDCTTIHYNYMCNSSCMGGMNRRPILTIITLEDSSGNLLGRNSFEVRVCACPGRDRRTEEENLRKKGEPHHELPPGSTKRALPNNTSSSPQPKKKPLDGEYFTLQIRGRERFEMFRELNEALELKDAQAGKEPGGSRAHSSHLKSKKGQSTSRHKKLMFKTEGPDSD

CC(C)C[C@H](NC(=O)CNC(=O)c1cc(Cl)ccc1Cl)C(=O)NCCCCCCC(=O)Nc1ccc(C(=O)/C=C/c2ccc(I)cc2)cc1 [TIBC-CANDDY_MLN]
amount of the endogenous wild-type p53 protein (Western blot) [1]: reduced
amount of the endogenous MDM2 protein (Western blot) (MDM2 protein): reduced
